Data from US6486209B2, “Use for 1,3-propanediol derivatives” (Novartis AG, priority 1996, dated 2002).

Tests used:
[1] = tested on: carotid artery allograft (DA donors, Lewis recipients); test: Prevention of graft vessel disease: carotid artery transplantation; format: in vivo, rat; conditions: 0.1 to 10 mg/kg alone or in combination with Cyclosporin A, 8 weeks, osmotic minipump s.c. or oral
Method: A. Prevention of Graft Vessel Disease
Inbred rat strains DA (RT1^a, donors) and Lewis (RT1^1, recipients of allografts), weighing between 200 and 350 grams are used. The animals are allowed unrestricted access to food and water before and after the operation.
Carotid artery transplantation:
The rats are anaesthetised with isofluorane (Abbott), (4-5% for induction, 1.5-2% for maintenance) and 300 μg atropin sulphate is injected subcutaneously following the induction. The left carotid artery is dissected free. The artery is clamped proximally and distally and a segment of about 7-10 mm is removed. The gap is bridged by an allograft which had also been subjected to 45 min cold ischemia. Ethilon 10/o sutures are used. Finally the skin is closed with 4/0 sutures. If needed, an Alzet osmotic minipump (Alza Corp. Palo Alto, Calif.) is then implanted subcutaneously over the back (alternatively the animals are treated orally).
The rats are subject to one of the following treatments: A compound of formula I alone at the doses of 0.1 to 10 mg/kg, or in combination with Cyclosporin A at the dose of 0.03, 0.3, or 1 mg.kg^−1·day^−1 is administered for 8 weeks either by using Alzet osmotic minipumps implanted subcutaneously or alternatively by oral administration. […]

[2] = tested on: Syrian hamster heart xenograft in rat; test: In vivo heart xenotransplantation (hamster-to-rat); conditions: 5-30 mg/kg/day orally
Source text: B. In vivo heart xenotransplantation (hamster-to-rat)
The hamster-into-rat xenograft combination is a so-called difficult concordant combination. […] This is visualized in histology by destruction of blood vessels, exsudation and extravasation of erythrocytes, and influx by polymorphonuclear granulocytes; often there are signs of hemorrhage and thrombosis. Once this rejection has been overcome by effective inhibition of antibody synthesis or complement inactivation, a cellular rejection can emerge later on. This is visualized in histology by influx of mononuclear cells, including lymphocytes, lymphoblastoid cells, and macrophages, and destruction of the myocyte parenchyma. The inhibition of cellular rejection requires more immuno-suppression than that of allografts. Congenitally athymic (rnu/rnu) rats lack a competent (thymus-dependent) cellular immune system and generally are unable to reject allografts. Such animals do reject a hamster xenograft within 3-4 days in a similar fashion as euthymic rats, indicative that (at least part of) anti-hamster antibody synthesis in rats occurs following a thymus-independent B-cell response. […]
The graft is monitored daily by palpation of the abdomen. […] Animals are subjected to autopsy; apart from the graft, weight and histology is assessed for thymus, spleen, liver, seminal vesicles and testes. […]

`CCCCCCCCc1ccc(CCC(N)(CO)CO)cc1` [Compound A, 2-amino-2-[2-(4-octylphenyl)ethyl]-1,3-propanediol] was tested, and the graft infiltration [1] was “significantly inhibit”, the neointima formation [1] was “significantly inhibit” and the graft survival ([2]; athymic recipients) was “prolonged graft survival”. For the same compound, the graft survival ([2]; euthymic recipients) was “prolonged graft survival”.
